Test results: patent publication US20040248257A1, “SPEX compositions and methods of use” (The Scripps Research Institute, priority 2003, published 2004)

Assays:
[1] = system: hSPEX mRNA expression; conditions: human cells; 10 μM U0126; cultured DP thymocytes; one experiment
Method: (§1) The expression of mSPEX and hSPEX mRNAs is compared in cultured DP thymocytes in the presence or absence of stimulation with PMA and ionomycin and in the presence or absence of a MEK inhibitor (10 μM U0126).

[2] = system: mSPEX mRNA expression; conditions: murine cells; 10 μM U0126; cultured DP thymocytes; one experiment
Method: as §1

N#CC(=C(/N)Sc1ccccc1N)/C(C#N)=C(\N)Sc1ccccc1N [U0126]
inhibition of the increase of SPEX mRNA expression observed with PMA and ionomycin stimulation [1]: approximately 70%
inhibition of the increase of SPEX mRNA expression observed with PMA and ionomycin stimulation [2]: approximately 70%
